System: human myeloma cell line MM.1S
Experiment: SILAC acetylated-lysine peptide profiling, HDAC inhibitor vs DMSO (light/heavy ratio)
Format: cell-based
Description: An embodiment of the invention comprises utilizing the SILAC method in order to quantitate changes in protein expression between two or more populations of cells. The SILAC method is a technique based on mass spectrometry that detects differences in protein abundance among samples using non-radioactive isotopic labeling. The SILAC method is known in the art, and described in detail in Ong et al., “Stable Isotope Labeling by Amino Acids in Cell Culture, SILAC, as a Simple and Accurate Approach to Expression Proteomics”, Molecular & Cellular Proteomics, vol. 1, pp. 376-386 (2002), which is incorporated herein by reference in its entirety.
Briefly, the SILAC method involves growing two populations of cells in cell culture. The first population of cells is grown in growth media containing normal amino acids (“normal media”). The second population of cells is grown in media lacking a standard essential amino acid (such as lysine), but is then supplemented with a non-radioactive, isotopically labeled form of that essential amino acid (such as lysine labeled with ^13C atoms, rather than normal ^12C atoms), which is called “heavy media”. When the two populations of cells are each growing in the medium, they incorporate the amino acids into all of their proteins. The growth of cells maintained in the heavy media is no different from that in normal media. All peptides containing the heavy amino acids are heavier than their normal counterparts. The cells from each of the two populations of cells are lysed. The lysates from each of the two cell populations are then combined. The combined cell lysates are then analyzed by mass spectrometry. Pairs of chemically identical peptides of different stable isotope composition can be differentiated in a mass spectrometer due to their difference in mass. The ratio of peak intensities in the mass spectrum for such peptide pairs reflects the abundance ratio for the two proteins.
This example describes SILAC studies that were performed to compare the effects of three different HDAC inhibitors (Compound A, Compound B, and tubastatin A) to a control on a human multiple myeloma cell line. The HDAC inhibitors were also compared amongst themselves to determine differences in their effects.
A human myeloma cell line MM.1S was grown using either ^12C (light) or ^13C (heavy) lysine containing culture medium. The “heavy” cells were treated with DMSO as the control, and the “light” cells were treated with a single HDAC inhibitor at 37° C. for 6 hours. The heavy and light cells were lysed, and the lysates were mixed in 1:1 ratio and digested with the protease trypsin. The acetylated lysine containing peptides (due to the action of the HDAC inhibitor) in the digested peptide pool were captured by a non-specific anti-acetylated lysine antibody cocktail (the antibodies identify both light and heavy acetylated peptides), and subjected to mass spectrometry analysis in order to identify thousands of individual peptides.
Thousands of peptides were identified in pairs (^12C and ^13C) due to their known mass differences. The amino acid sequence and quantitative ratio (Light/Heavy) of a given peptide in two differentially treated cell lysates were then determined and annotated with their possible protein (gene) sources.
As stated above, three HDAC inhibitors (Compound A, Compound B, and Tubastatin A) were used. Thus, the SILAC method was performed three times, with a different HDAC inhibitor compared to a control each time. Accordingly, there are three pairs of quantitative data in the table below, i.e., Compound A:DMSO, Compound B:DMSO, and Tubastatin A:DMSO. A cut-off of 1.30 fold of change (increase or decrease) was then used to determine “changed” or “+” in the table, and any peptides with a fold of change less than 1.3 fold were determined to be “unchanged” or “0” in the table. Those peptides that were not identified were marked as “NA” in the table. […]

O=C(CCCCCCNC(=O)c1cnc(N(c2ccccc2)c2ccccc2)nc1)NO [Compound A, 2-(diphenylamino)-N-(7-(hydroxyamino)-7-oxoheptyl)pyrimidine-5-carboxamide]
light to heavy ratio (L/H ratio) of acetylated peptide […](ac)FLK (SEQ ID NO: 326) (Isoform 5 of Transcriptional regulator ATRX [812], ATRX, drug:DMSO): 0.00 log 2
light to heavy ratio (L/H ratio), log 2 scale, acetylated peptide YNDPIYVK(ac)LEK (SEQ ID NO: 764) (Isoform A of AP-1 complex subunit beta-1 [335], gene AP1B1, drug:DMSO): 0.93
light to heavy ratio (L/H ratio) of acetylated peptide K(ac)VLFTCFK (SEQ ID NO: 529) (Isoform Beta-2 of DNA topoisomerase 2-beta [749], gene TOP2B, inhibitor:DMSO): −0.42 log 2
light to heavy ratio (L/H ratio) of acetylated peptide K(ac)SSETLR (SEQ ID NO: 601) (Isoform CNPI of 23-cyclic-nucleotide 3-phosphodiesterase [177], gene CNP, inhibitor:DMSO): 0.46 log 2
light to heavy ratio (L/H ratio) of acetylated peptide MVAAAK(ac)YAR (SEQ ID NO: 324) (Isoform Heart of ATP synthase subunit gamma mitochondrial [55], ATP5C1, drug:DMSO): 0.00 log 2
light to heavy ratio (L/H ratio), log 2 scale, acetylated peptide VNK(ac)EVER (SEQ ID NO: 782) (Isoform Long of ES1 protein homolog mitochondrial [157], gene C21orf33, drug:DMSO): 1.00
light to heavy ratio (L/H ratio) of acetylated peptide EFHQAGK(ac)[…] (SEQ ID NO: 623) (Isoform Long of ES1 protein homolog mitochondrial [171], gene C21orf33, inhibitor:DMSO): 0.48 log 2
light to heavy ratio (L/H ratio) of acetylated peptide […](ac)R (SEQ ID NO: 588) (Isoform Long of Spectrin beta chain brain 1 [497], gene SPTBN1, inhibitor:DMSO): 0.44 log 2
light to heavy ratio (L/H ratio) of acetylated peptide NLHSK(ac)WLK (SEQ ID NO: 589) (Isoform Long of Spectrin beta chain brain 1 [1312], gene SPTBN1, inhibitor:DMSO): 0.44 log 2
light to heavy ratio (L/H ratio) of acetylated peptide VPNDK(ac)YYGAQTVR (SEQ ID NO: 625) (Isoform Mitochondrial of Fumarate hydratase mitochondrial [66], gene FH, inhibitor:DMSO): 0.49 log 2
light to heavy ratio (L/H ratio) of acetylated peptide MMVAGFK(ac)K (SEQ ID NO: 339) (Isoform Short of Heterogeneous nuclear ribonucleoprotein U [524], HNRNPU, drug:DMSO): 0.00 log 2
light to heavy ratio (L/H ratio) of acetylated peptide APQCLGK(ac)FIEIAAR (SEQ ID NO: 338) (Isoform Short of Heterogeneous nuclear ribonucleoprotein U [546], HNRNPU, drug:DMSO): 0.00 log 2
light to heavy ratio (L/H ratio) of acetylated peptide LLEQYK(ac)EESK (SEQ ID NO: 302) (Isoform Short of Heterogeneous nuclear ribonucleoprotein U [651], HNRNPU, drug:DMSO): 0.89 log 2
light to heavy ratio (L/H ratio) of acetylated peptide, log 2 scale (K(ac)[…] (SEQ ID NO: 246), Endoplasmin [270], HSP90B1): −0.54
light to heavy ratio (L/H ratio), log 2 scale, acetylated peptide (ac)[…](ac)GAGK (SEQ ID NO: 801) (KRR1 small subunit processome component homolog [11], gene KRR1, drug:DMSO): 1.00
light to heavy ratio (L/H ratio) of acetylated peptide, log 2 scale (KTPCGEGSK(ac)TWDR (SEQ ID NO: 245), 40S ribosomal protein S20 [75], SNORD54, RPS20): −0.69
light to heavy ratio (L/H ratio) of acetylated peptide IVADK(ac)DYSVTANSK (SEQ ID NO: 317) (L-lactate dehydrogenase B chain [82], LDHB, drug:DMSO): 1.00 log 2
L/H ratio of acetylated peptide (LAK(ac)LSDGVAVLK (SEQ ID NO: 484), 60 kDa heat shock protein mitochondrial [396], HSPD1): 0.61 log 2
L/H ratio of acetylated peptide (LALQK(ac)QLTK (SEQ ID NO: 495), Isoform 2 of Zinc finger protein 385C [103], ZNF385C): −1.00 log 2
L/H ratio of acetylated peptide IHLEIK(ac)QLNR (SEQ ID NO: 57) (LMAN1 [346], log 2 scale, drug vs DMSO): 0.00
L/H ratio of acetylated peptide (LMK(ac)YGDSLYR (SEQ ID NO: 499), Nucleolar GTP-binding protein 1 [118], GTPBP4): −0.78 log 2
L/H ratio of acetylated peptide LYK(ac)[…] (SEQ ID NO: 4) (LMNB1 [261], log 2 scale, drug vs DMSO): 0.00
L/H ratio of acetylated peptide […](ac)LENAR (SEQ ID NO: 58) (LMNB1 [271], log 2 scale, drug vs DMSO): 0.00
L/H ratio of acetylated peptide GFGYK(ac)GSCFHR (SEQ ID NO: 59) (LOC390956 [71], log 2 scale, drug vs DMSO): 0.00
L/H ratio of acetylated peptide (LTLDK(ac)LDVK (SEQ ID NO: 485), Phosphoglycerate kinase 1 [11], PGK1): 0.65 log 2
L/H ratio of acetylated peptide (LVDTGDK(ac)FR (SEQ ID NO: 478), Isoform Long of Spectrin beta chain brain 1 [1913], SPTBN1): −0.46 log 2
L/H ratio of acetylated peptide (LVSEK(ac)LASYQAAR (SEQ ID NO: 476), Isoform 2 of Myc proto-oncogene protein [163], MYC): −0.82 log 2
light to heavy ratio (L/H ratio) of acetylated peptide, log 2 scale (LYATMEK(ac)HK (SEQ ID NO: 251), Histone acetyltransferase p300 [1590], EP300): −0.43
light to heavy ratio (L/H ratio) of acetylated peptide AVLK(ac)[…] (SEQ ID NO: 262) (Laminin receptor-like protein LAMRL5 [89], SNORA6, RPSAP15, SNORA62, RPSA, drug:DMSO): 0.41 log 2
light to heavy ratio (L/H ratio) of acetylated peptide IHDVLCK(ac)LVEK (SEQ ID NO: 613) (Leucine-rich PPR motif-containing protein mitochondrial [864], gene LRPPRC, inhibitor:DMSO): 0.47 log 2
light to heavy ratio (L/H ratio) of acetylated peptide SYVSEK(ac)DVTSAK (SEQ ID NO: 628) (Leucine-rich PPR motif-containing protein mitochondrial [1332], gene LRPPRC, inhibitor:DMSO): 0.49 log 2
L/H ratio of acetylated peptide ICCQFDFK(ac)R (SEQ ID NO: 60) (MAN2A1 [373], log 2 scale, drug vs DMSO): 0.00
L/H ratio of acetylated peptide YLTNQK(ac)NSNSK(ac)NDR (SEQ ID NO: 17) (MEAF6 [69:74], log 2 scale, drug vs DMSO): 1.00
L/H ratio of acetylated peptide TLVLSDK(ac)HSPQK(ac)K (SEQ ID NO: 5) (MLL3 [2809:2814], log 2 scale, drug vs DMSO): 0.00
light to heavy ratio (L/H ratio) of acetylated peptide VHLSQK(ac)YK (SEQ ID NO: 343) (Matrin-3 [473], MATR3, SNHG4, drug:DMSO): 0.00 log 2
light to heavy ratio (L/H ratio) of acetylated peptide FLNK(ac)LAEER (SEQ ID NO: 342) (Matrin-3 [836], MATR3, SNHG4, drug:DMSO): 0.00 log 2

Reference: US20140357512A1, “HISTONE DEACETYLASE (HDAC) BIOMARKERS IN MULTIPLE MYELOMA” (priority 2013, published 2014)
